ChEMBL document CHEMBL1201862, “PubChem BioAssay data set” (2004)
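Interpolation was linear, between the two tested concentrations surrounding the appropriate level; five concentrations were tested over 48 hours in 96-well plates. Abbreviation: GI50, concentration required for 50% inhibition of growth.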 Calls of active or inactive are those of the source. No stated cut-off is given here; in the data, active = GI50 up to about 1.1 µM and inactive = higher. Square brackets hold non-standard residues; d marks the D form. Peptide text beside a SMILES is read from it. * marks the point of attachment. X26 = COC1=CC(=O)N(C(=O)[C@@H](O*)C(C)C)[C@H]1Cc1ccccc1; NMeV = CN[C@H](C(=O)O)C(C)C; Hexanoyl = CCCCCC(=O)*

Experiments:
Test in all cases: NCI tumour cell line growth inhibition, 48 h
SF-539 = tested on: SF-539
NCI-H226 = tested on: NCI-H226
SF-268 = tested on: SF-268
OVCAR-4 = tested on: OVCAR-4
M14 = tested on: M14
COLO 205 = tested on: COLO 205
A498 = tested on: A498
SK-OV-3 = tested on: SK-OV-3
MDA-MB-231 = tested on: MDA-MB-231
RPMI-8226 = tested on: RPMI-8226
MCF7 = tested on: MCF7
CCRF-CEM = tested on: CCRF-CEM
RXF 393 = tested on: RXF 393
PC-3 = tested on: PC-3
T47D = tested on: T47D
UO-31 = tested on: UO-31
MDA-MB-435 = tested on: MDA-MB-435
SW-620 = tested on: SW-620
EKVX = tested on: EKVX
LOX IMVI = tested on: LOX IMVI

| Compound | GI50 (SF-539) | GI50 (NCI-H226) | GI50 (SF-268) | GI50 (OVCAR-4) | GI50 (M14) | GI50 (COLO 205) | GI50 (A498) | GI50 (SK-OV-3) | GI50 (MDA-MB-231) | GI50 (RPMI-8226) | GI50 (MCF7) | GI50 (CCRF-CEM) | GI50 (RXF 393) | GI50 (PC-3) | GI50 (T47D) | GI50 (UO-31) | GI50 (MDA-MB-435) | GI50 (SW-620) | GI50 (EKVX) | GI50 (LOX IMVI) |
| --- | --- | --- | --- | --- | --- | --- | --- | --- | --- | --- | --- | --- | --- | --- | --- | --- | --- | --- | --- | --- |
| O=C(NCCCCN(CCCNC(=O)C(F)(F)F)Cc1ccccc1)C(F)(F)F | > 100 µM (inactive) | 35.4 µM (inactive) | > 100 µM (inactive) | > 100 µM (inactive) | > 100 µM (inactive) | > 100 µM (inactive) | > 100 µM (inactive) | > 100 µM (inactive) | > 100 µM (inactive) | > 100 µM (inactive) | > 100 µM (inactive) | > 100 µM (inactive) | > 100 µM (inactive) | 92.3 µM (inactive) | > 100 µM (inactive) | > 100 µM (inactive) | > 100 µM (inactive) | > 100 µM (inactive) | > 100 µM (inactive) | – |
| CC(=O)OCC1OC(NC(=S)Nn2c(-c3ccccc3)nc3ccccc3c2=O)C(OC(C)=O)C(OC(C)=O)C1OC(C)=O (stereo unspecified) | 37.8 µM (inactive) | 14.7 µM (inactive) | > 100 µM (inactive) | – | 62.7 µM (inactive) | > 100 µM (inactive) | > 100 µM (inactive) | > 100 µM (inactive) | 81.5 µM (inactive) | > 100 µM (inactive) | 85.9 µM (inactive) | 38.5 µM (inactive) | > 100 µM (inactive) | > 100 µM (inactive) | 19.4 µM (inactive) | > 100 µM (inactive) | > 100 µM (inactive) | > 100 µM (inactive) | > 100 µM (inactive) | > 100 µM (inactive) |
| O=C(COc1ccc(OCC(=O)N2C(=O)CC/C2=N\c2ccc(Cl)cc2)cc1)N1C(=O)CS/C1=N\c1ccc(Cl)cc1 | – | > 100 µM (inactive) | > 100 µM (inactive) | 75.3 µM (inactive) | 89.7 µM (inactive) | 47.9 µM (inactive) | > 100 µM (inactive) | > 100 µM (inactive) | 26.9 µM (inactive) | 46.1 µM (inactive) | 35.3 µM (inactive) | – | > 100 µM (inactive) | 47.1 µM (inactive) | 14.2 µM (inactive) | 37.2 µM (inactive) | > 100 µM (inactive) | > 100 µM (inactive) | 76.9 µM (inactive) | 25.2 µM (inactive) |
| COC(=O)C1=C(C(=O)OC)c2cc(OC)ccc2C(C(=S)N(C)C)S1 (stereo unspecified) | – | > 100 µM (inactive) | > 100 µM (inactive) | > 100 µM (inactive) | > 100 µM (inactive) | > 100 µM (inactive) | > 100 µM (inactive) | > 100 µM (inactive) | > 100 µM (inactive) | > 100 µM (inactive) | > 100 µM (inactive) | – | > 100 µM (inactive) | > 100 µM (inactive) | > 100 µM (inactive) | > 100 µM (inactive) | > 100 µM (inactive) | > 100 µM (inactive) | > 100 µM (inactive) | > 100 µM (inactive) |
| OCC1OC(n2cnc3c(Cl)nc(Nc4ccc(Cl)c(Cl)c4)nc32)CC1O (stereo unspecified) | – | 8.15 µM (inactive) | 12.7 µM (inactive) | 10.1 µM (inactive) | 10.7 µM (inactive) | 11 µM (inactive) | 10.7 µM (inactive) | 13.6 µM (inactive) | 11.8 µM (inactive) | 8.13 µM (inactive) | 11 µM (inactive) | 8.65 µM (inactive) | 10.3 µM (inactive) | 9.57 µM (inactive) | 13.3 µM (inactive) | 11.6 µM (inactive) | 9.38 µM (inactive) | 11.9 µM (inactive) | 9.98 µM (inactive) | 7.78 µM (inactive) |
| CN(C)c1ccc(/C=c2/c3ccccc3n3c2cc(C24CC5CC(CC(C5)C2)C4)[n+]3C)cc1 | 0.123 µM (active) | 0.396 µM (active) | 0.555 µM (active) | 0.337 µM (active) | 0.32 µM (active) | 0.0877 µM (active) | 0.314 µM (active) | 0.377 µM (active) | 0.281 µM (active) | 0.053 µM (active) | 0.0615 µM (active) | 0.117 µM (active) | – | 0.125 µM (active) | 0.124 µM (active) | 0.29 µM (active) | 0.176 µM (active) | 0.148 µM (active) | 0.344 µM (active) | 0.326 µM (active) |
| O=C1CCC(C(=O)O)C2=C1CCCC2 (stereo unspecified) | – | > 14.4 µM (inactive) | > 100 µM (inactive) | > 100 µM (inactive) | > 100 µM (inactive) | > 100 µM (inactive) | > 100 µM (inactive) | > 43.4 µM (inactive) | > 100 µM (inactive) | > 100 µM (inactive) | 51.6 µM (inactive) | > 100 µM (inactive) | > 100 µM (inactive) | > 100 µM (inactive) | > 100 µM (inactive) | – | > 100 µM (inactive) | > 100 µM (inactive) | > 100 µM (inactive) | > 100 µM (inactive) |
| Cc1ccc(-c2cc(N)n(-c3nc4c([nH]3)c(=O)n(C)c(=O)n4C)n2)cc1 | 4.24 µM (inactive) | 6.71 µM (inactive) | 3.59 µM (inactive) | 4.01 µM (inactive) | 4.32 µM (inactive) | 3.62 µM (inactive) | 4.86 µM (inactive) | 3.3 µM (inactive) | 8.97 µM (inactive) | 6.81 µM (inactive) | 6.78 µM (inactive) | 2.64 µM (inactive) | 17.6 µM (inactive) | 16.3 µM (inactive) | 4.76 µM (inactive) | 2.78 µM (inactive) | 7.73 µM (inactive) | – | 3.09 µM (inactive) | – |
| CC1CC2OC(=N)C1(C#N)C2(C#N)C#N (stereo unspecified) | 22.5 µM (inactive) | 38.4 µM (inactive) | 21.8 µM (inactive) | – | 29.6 µM (inactive) | 10.9 µM (inactive) | 20.3 µM (inactive) | > 100 µM (inactive) | 17.2 µM (inactive) | 16.4 µM (inactive) | 28 µM (inactive) | 4.94 µM (inactive) | 16.1 µM (inactive) | 25.7 µM (inactive) | 25.9 µM (inactive) | 24.5 µM (inactive) | 34 µM (inactive) | 18.2 µM (inactive) | 16.6 µM (inactive) | 14.7 µM (inactive) |
| Cc1c(C)c(C)n(C2OC(CO)C(O)C(O)C2O)c(=S)c1C#N (stereo unspecified) | > 100 µM (inactive) | > 100 µM (inactive) | > 100 µM (inactive) | > 100 µM (inactive) | > 100 µM (inactive) | > 100 µM (inactive) | > 100 µM (inactive) | > 100 µM (inactive) | > 100 µM (inactive) | – | > 100 µM (inactive) | > 100 µM (inactive) | > 100 µM (inactive) | > 100 µM (inactive) | > 100 µM (inactive) | > 100 µM (inactive) | > 100 µM (inactive) | > 100 µM (inactive) | > 100 µM (inactive) | > 100 µM (inactive) |
| C#CC(O)/C=C/C(O)CCCC(O)CC#CC(O)C#CCCCCC(O)/C=C/CCCC(O)/C=C/CCCCCCCCCCCCCC(O)C(O)C#CC(=O)O (stereo unspecified) | – | > 25 µM (inactive) | > 25 µM (inactive) | > 25 µM (inactive) | > 25 µM (inactive) | > 25 µM (inactive) | > 25 µM (inactive) | > 25 µM (inactive) | > 25 µM (inactive) | > 25 µM (inactive) | > 25 µM (inactive) | > 25 µM (inactive) | > 25 µM (inactive) | > 25 µM (inactive) | > 25 µM (inactive) | > 25 µM (inactive) | > 25 µM (inactive) | – | > 25 µM (inactive) | 13.9 µM (inactive) |
| Nc1ccccc1/N=N/c1c(S(=O)(=O)O)cc2cc(S(=O)(=O)O)cc(O)c2c1O | – | > 100 µM (inactive) | > 100 µM (inactive) | > 100 µM (inactive) | > 100 µM (inactive) | > 100 µM (inactive) | > 100 µM (inactive) | > 100 µM (inactive) | > 100 µM (inactive) | > 100 µM (inactive) | > 100 µM (inactive) | > 100 µM (inactive) | > 100 µM (inactive) | > 100 µM (inactive) | > 100 µM (inactive) | > 100 µM (inactive) | > 100 µM (inactive) | > 100 µM (inactive) | > 100 µM (inactive) | > 100 µM (inactive) |
| Cc1cc(C)cc(Nc2cc(O)nc(O)n2)c1 | > 100 µM (inactive) | 58.3 µM (inactive) | > 100 µM (inactive) | > 100 µM (inactive) | > 100 µM (inactive) | > 100 µM (inactive) | > 100 µM (inactive) | – | > 100 µM (inactive) | > 100 µM (inactive) | > 100 µM (inactive) | > 100 µM (inactive) | 90.4 µM (inactive) | > 100 µM (inactive) | 0.0649 µM (active) | > 100 µM (inactive) | > 100 µM (inactive) | > 100 µM (inactive) | > 100 µM (inactive) | > 100 µM (inactive) |
| CCCCCC(=O)N[C@H](C(=O)N[C@H](C(=O)N(C)[C@H](C(=O)N1CCC[C@H]1C(=O)N1CCC[C@H]1C(=O)O[C@H](C(=O)N1C(=O)C=C(OC)[C@@H]1Cc1ccccc1)C(C)C)C(C)C)C(C)C)C(C)C (Hexanoyl-VV[NMeV]PP-X26) | 36.9 µM (inactive) | > 100 µM (inactive) | > 100 µM (inactive) | > 100 µM (inactive) | – | > 100 µM (inactive) | 46.3 µM (inactive) | > 100 µM (inactive) | 34.2 µM (inactive) | 84.1 µM (inactive) | 59.2 µM (inactive) | 48.6 µM (inactive) | 23.2 µM (inactive) | 25.2 µM (inactive) | > 100 µM (inactive) | 40 µM (inactive) | 36.2 µM (inactive) | > 100 µM (inactive) | 85.9 µM (inactive) | > 100 µM (inactive) |
